Experimental data from patent publication US11072637B2, “Walnut oligopeptide powder, preparation method and application thereof” (Sinphar Tian-Li (Hangzhou) Pharmacy Company Limited, priority 2016, dated 2021).

Key:
H2O2 induced PC12 cell = experiment: Protection of PC12 cells against hydrogen peroxide damage (MTT); format: cell-based; conditions: 80 μg/ml, 6 hours pre-culture, then 100 μM H2O2 12 hours; model group 57.2
Experimental: PC12 nerve cell protection model: This is a good model for studying nerve cell physiology, pathology and pharmacology, and also a most common in-vitro drug screening model for studying Parkinson's disease and neuro-fatigue.
PC12 cells were cultured by using a high-sugar DMEM culture medium containing 10% fetal calf serum, and digesting for about 50 seconds by using 0.25% of pancreatin during cell passage, stopping digestion by using a DMEM culture medium containing 10% serum, and adding fresh culture medium to blow the cells uniformly. Cell density passage of 10^5/ml was carried out. 4 ml of culture solution containing cells was added to each bottle of cells, culturing under the conditions of 37° C. and 5% CO2. […]
The 96-well plate was respectively given to 100 μL of the walnut oligopeptide by a certain concentration gradient in each hole, after culturing for 24 hours, the cell vitality was detected by MTT method. […] The cell activity of the model group and the drug delivery group was calculated by taking the average value of the OD value of the control group as 100% of the cell activity. […]
The above groups were cultured under the same conditions, and then subsequent experiments were carried out. The cell activity was detected by MTT method in 96-well plates.

[1] = DPPH free radical scavenging experiment; format: biochemical; conditions: 100 μg/mL
Experimental: 1. DPPH Free Radical Scavenging Experiment: 1.1 Preparation of DPPH ethanol solution: precisely weighing 4 mg of […], putting into a 100 ml brown volumetric flask, and adding 50 ml of ethanol, the ultrasonic treatment was carried out for 30 seconds, ethanol was used for fixing the volume to scale, shaking, and the product needs to be freshly prepared when needed. 1.2 Preparation of test solution: precisely weighing 10 mg of walnut oligopeptide powder, and putting into a 50 ml brown volumetric flask, adding 30 ml of ethanol, carrying out ultrasonic treatment for 5 minutes, diluting with ethyl alcohol for fixing the volume to scale, and shaking. […]

[2] = ABTS+ free radical scavenging experiment; format: biochemical; conditions: 100 μg/mL
Experimental: 2. ABTS^+ Free Radical Scavenging Experiment: 2.1 Preparation of PBS buffer solution: weighing 8 g of sodium chloride, 0.2 g of potassium chloride, 0.24 g of monopotassium phosphate, and 3.62 g of disodium hydrogen phosphate dodecahydrate and putting them into a 1000 ml beaker, adding 800 ml of distilled water, stirring to dissolve, and adjusting the pH value to 7.4 by using hydrochloric acid or sodium hydroxide, transferring into a 1000 ml volumetric flask, adding distilled water to dilute, shaking evenly, and standing for later use. […] 2.5 Operation steps: accurately sucking 0.5 ml of test solution and 5 ml of ABTS working solution, and mixing uniformly; accurately sucking 0.5 ml of test solution and 5 ml of PBS buffer solution, and mixing uniformly; accurately sucking 5 ml of ABTS working solution and 0.5 ml of PBS buffer solution, and mixing uniformly, the absorbance was measured immediately at 734 nm, and the free radical removal rate was calculated according to the following formula: IR%=[1−(Ai−Aj)/A0]*100%; in which, Ai represents the absorbance of the mixture of the test solution and ABTS, Aj represents the absorbance of the mixture of the test solution and solvent, and A0 represents the absorbance of the mixture of ABTS and solvent. […]

[3] = SRSA superoxide anion free radical scavenging experiment; format: biochemical; conditions: 100 μg/mL
Experimental: 3. SRSA Superoxide Anion Free Radical Scavenging Experiment: 3.1 Preparation of 0.1 moL/L PBS buffer solution (pH 7.4): 80 g of sodium chloride, 2 g of potassium chloride, 2.4 g of monopotassium phosphate and 23.1 g of dipotassium hydrogen phosphate trihydrate were weighted and placed in 1000 ml beaker, adding 600 ml of distilled water, stirring to dissolve, and adjusting the pH to […] with hydrochloric acid or sodium hydroxide, transferring into 1000 ml volumetric flask, adding distilled water to dilute to the scale, shaking evenly, and standing for later use. […] 3.7 Operation steps: accurately sucking 0.5 ml of test solution and 5 ml of the working solution, and uniformly mixing; accurately sucking 0.5 ml of test solution and 5 ml of distilled water, and uniformly mixing; accurately sucking 5 ml of the working solution and 0.5 ml of distilled water, and uniformly mixing, the absorbance was determined immediately at 560 nm, and the free radical scavenging rate was calculated according to the following formula: IR%=[1−(Ai−Aj)/A0]*100%; in which, Ai represents the absorbance of the mixture of the test solution and […], Aj represents the absorbance of the mixture of the test solution and the solvent; and A0 represents the absorbance of the mixture of SRSA and solvent. […]

| Structure (SMILES) | Cell activity(%) (H2O2 induced PC12 cell) | DPPH scavenging rate % [1] [%] | ABTS^+ scavenging rate % [2] [%] | SRSA scavenging rate % [3] [%] |
| --- | --- | --- | --- | --- |
| CC(=O)N[C@@H](CS)C(=O)O [Positive group, NAC] | 88.0 |  |  |  |
| O=C1O[C@H]([C@@H](O)CO)C(O)=C1O [Vitamin C] |  | 97.2 | 98.1 | 80.1 |
